From US12545669B2, “Cycloalkyl and heterocycloalkyl benzisoxazole sulfonamide derivatives” (Pfizer Inc., priority 2019, dated 2026)
Like-named read-outs stand apart in the source and are kept apart here.

Molecular target: KAT6A (Homo sapiens (Human), UniProt Q92794)
Assay: KAT assay protocol (SAMDI mass spectrometry), KAT6A
Assay type: biochemical
Conditions: for inhibition at 1 µM: 1 μM compound; for Ki: 10 μM AcCoA, Morrison equation; for IC50: 1 μM AcCoA
Experimental: Biological Assay Section 1 KAT Assay Protocol:
A. Compound Preparation • 1. Prepare 10 mM stock solutions in 100% DMSO from solid material • 2. Serial dilute 10 mM, 1 mM or 0.1 mM compound stocks 3-fold in 100% DMSO for 11-point dose response
B. Reagent Preparation • 1. Prepare 1× assay buffer containing 10 mM Tris HCL pH 8.0, 2.5 mM NaCl, 0.5 mM EDTA, 0.005% BSG and 0.02% Tween-20 • 2. Dilute Histone peptide (CPC Scientific) and AcCoA (Sigma) together in assay buffer to 2×. • 3. Dilute KAT enzyme in assay buffer to 2×.
C. Enzyme Reaction • 1. Final reaction conditions for each KAT assay in a 20 ul assay reaction volume: • i. […] Add 0.5 ul of diluted compound to the assay plate (384-well V-bottom polypropylene plates) or 0.5 ul of DMSO for control wells. • 3. Add 10 ul of 2× Histone peptide/2× AcCoA mix to the assay plate. • 4. Add 10 ul of 2× enzyme to the assay plate. • 5. Stop the reaction after the indicated time with the addition of 2 ul of 5% formic acid • 6. Each reaction was analyzed using self-assembled monolayer desorption/ionization time-of-flight mass spectrometry (Mrksich, Milan (2008) Mass Spectrometry of Self-Assembled Monolayers: A New Tool for Molecular Surface Science ACS Nano 2008 2 (1), 7-18; SAMDI Tech, Inc. (Chicago, IL)). • 7. Area under the curve (AUC) for both substrate and product peaks was determined for KAT6A at M.W. 2723 [Substrate+H]^+ and 2765 [Product+H]^+ with a +/−1 Da tolerance, respectively. • 8. Percent conversion to product was calculated by: AUCProduct/(AUCSubstrate+AUCProduct).
D. Data Analysis • 1. IC50 values were determined by fitting the % conversion at each inhibitor concentration to the 4-parameter IC50 equation using Pfizer proprietary curve fitting software. • 2. Ki values were determined by fitting the % conversion at each inhibitor concentration to the Morrison equation for tightbinding competitive inhibitors using Pfizer proprietary curve fitting software. Materials
KAT enzymes were expressed using a baculovirus expression system and purified at Pfizer, La Jolla. Histone H3 (1-21) peptide ([…], SEQ ID NO:3) was purchased from CPC Scientific (Sunnyvale, CA). Acetyl coenzyme A was purchased from Sigma-Aldrich (St. Louis, MO). All other biochemical reagents were purchased from Sigma-Aldrich or ThermoFisher Scientific (Waltham, MA).
[…] 10 ul of 2× Histone peptide/AcCoA mix was added to a 384-well V-bottom polypropylene assay plate containing 0.5 ul of serially diluted test compound in 100% dimethyl sulfoxide (DMSO). To start the reaction, 10 ul of 2× enzyme solution was added to the assay plate. KAT assays were terminated after 30-60 minutes with the addition of 2 ul of 5% formic acid. KAT6A used histone H3 (1-21) peptide. The final enzyme concentration for KAT6A was 15 nM. Each reaction was analyzed using self-assembled monolayer desorption/ionization time-of-flight mass spectrometry (Mrksich, Milan (2008) Mass Spectrometry of Self-Assembled Monolayers: A New Tool for Molecular Surface Science ACS Nano 2008 2 (1), 7-18; SAMDI Tech, Inc. (Chicago, IL)).
Area under the curve (AUC) for both substrate and product peaks was determined for KAT6A at M.W. 2723 [Substrate+H]^+ and 2765 [Product+H]^+ with a +/−1 Da tolerance, respectively. Percent conversion to product was calculated by: AUCProduct/(AUCSubstrate+AUCProduct). IC50 values were determined by fitting the % conversion at each inhibitor concentration to the 4-parameter IC50 equation using Pfizer proprietary curve fitting software. Ki values were determined by fitting the % conversion at each inhibitor concentration to the Morrison equation for tightbinding competitive inhibitors using Pfizer proprietary curve fitting software.

Chain of KAT6A (Q92794 whole entry): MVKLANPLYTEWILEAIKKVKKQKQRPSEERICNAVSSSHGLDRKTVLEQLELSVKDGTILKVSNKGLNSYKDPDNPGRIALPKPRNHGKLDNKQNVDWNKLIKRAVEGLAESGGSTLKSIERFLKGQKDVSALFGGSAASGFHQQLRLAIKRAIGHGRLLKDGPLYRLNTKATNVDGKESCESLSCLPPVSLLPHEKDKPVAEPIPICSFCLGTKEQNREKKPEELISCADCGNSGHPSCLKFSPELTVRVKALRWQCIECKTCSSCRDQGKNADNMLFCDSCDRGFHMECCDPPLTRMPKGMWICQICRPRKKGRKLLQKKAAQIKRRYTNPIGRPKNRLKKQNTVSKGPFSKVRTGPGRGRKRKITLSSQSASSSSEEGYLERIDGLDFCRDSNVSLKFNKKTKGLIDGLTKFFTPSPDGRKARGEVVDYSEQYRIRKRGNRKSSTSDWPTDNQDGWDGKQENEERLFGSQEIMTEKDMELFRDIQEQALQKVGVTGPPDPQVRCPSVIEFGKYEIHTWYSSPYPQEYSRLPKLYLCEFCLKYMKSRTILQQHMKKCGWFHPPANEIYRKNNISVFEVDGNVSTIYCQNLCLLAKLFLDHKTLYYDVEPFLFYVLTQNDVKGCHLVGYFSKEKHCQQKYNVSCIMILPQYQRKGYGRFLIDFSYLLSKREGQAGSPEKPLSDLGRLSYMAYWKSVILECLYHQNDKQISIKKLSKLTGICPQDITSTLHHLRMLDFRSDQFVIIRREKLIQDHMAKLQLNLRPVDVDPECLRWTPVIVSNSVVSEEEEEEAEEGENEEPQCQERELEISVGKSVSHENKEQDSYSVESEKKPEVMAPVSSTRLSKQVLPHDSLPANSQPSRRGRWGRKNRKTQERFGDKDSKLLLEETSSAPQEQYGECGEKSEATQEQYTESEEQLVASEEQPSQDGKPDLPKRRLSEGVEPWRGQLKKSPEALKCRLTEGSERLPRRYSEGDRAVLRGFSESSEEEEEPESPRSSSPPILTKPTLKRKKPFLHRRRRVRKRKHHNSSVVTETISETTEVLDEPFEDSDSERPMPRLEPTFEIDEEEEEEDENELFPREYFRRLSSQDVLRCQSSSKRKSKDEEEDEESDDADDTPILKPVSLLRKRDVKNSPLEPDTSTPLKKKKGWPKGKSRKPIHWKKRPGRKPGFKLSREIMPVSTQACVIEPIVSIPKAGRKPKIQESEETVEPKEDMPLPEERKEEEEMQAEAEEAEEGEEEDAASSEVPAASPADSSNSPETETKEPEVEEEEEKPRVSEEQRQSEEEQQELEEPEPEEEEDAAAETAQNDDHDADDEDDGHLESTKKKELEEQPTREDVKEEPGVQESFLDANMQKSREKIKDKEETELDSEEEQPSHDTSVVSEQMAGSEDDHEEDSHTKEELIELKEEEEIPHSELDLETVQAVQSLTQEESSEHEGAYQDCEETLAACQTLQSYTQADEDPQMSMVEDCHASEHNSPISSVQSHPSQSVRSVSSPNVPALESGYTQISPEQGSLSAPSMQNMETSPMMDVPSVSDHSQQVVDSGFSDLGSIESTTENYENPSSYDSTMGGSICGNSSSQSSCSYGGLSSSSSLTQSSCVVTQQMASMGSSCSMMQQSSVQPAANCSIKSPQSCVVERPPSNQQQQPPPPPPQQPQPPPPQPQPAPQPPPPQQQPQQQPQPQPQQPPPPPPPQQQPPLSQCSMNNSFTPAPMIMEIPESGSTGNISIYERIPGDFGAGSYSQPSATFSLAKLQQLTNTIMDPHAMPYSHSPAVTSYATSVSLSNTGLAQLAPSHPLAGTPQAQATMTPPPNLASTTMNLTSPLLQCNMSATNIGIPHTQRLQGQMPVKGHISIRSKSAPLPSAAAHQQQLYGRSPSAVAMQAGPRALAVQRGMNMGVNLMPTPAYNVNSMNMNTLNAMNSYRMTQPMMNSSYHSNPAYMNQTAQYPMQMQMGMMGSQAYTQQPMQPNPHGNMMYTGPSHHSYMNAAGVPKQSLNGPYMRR

SMILES | inhibition at 1 µM [%] | Ki (KAT6A Ki at 10 μM AcCoA) [nM] | further results
COc1cc(Cn2cccn2)cc2onc(NS(=O)(=O)C3CCC(C)C3)c12 (stereo not drawn) [Example 21] | 84 | 34.5 | –
COc1cc(Cn2cccn2)cc2onc(NS(=O)(=O)CC3(OC(C)C)CCCO3)c12 (stereo not drawn) [Example 122] | 85 | 14.9 | IC50 (KAT6A IC50 at 1 μM AcCoA): 38.4 nM
COc1cc(Cn2cccn2)cc2onc(NS(=O)(=O)CC3CC34CC4)c12 (stereo not drawn) [Example 57] | 104 | 13.9 | –
COc1cc(Cn2cccn2)cc2onc(NS(=O)(=O)CC3CCCCO3)c12 (single isomer, unassigned; (-)) [Example 2, (−)-N-{4-methoxy-6-[(1H-pyrazol-1-yl)methyl]-1,2-benzoxazol-3-yl}-1-(oxan-2-yl)methanesulfonamide] | – | – | IC50 (KAT6A IC50 at 1 μM AcCoA): 270 nM
COc1cc(Cn2cccn2)cc2onc(NS(=O)(=O)CC3CCCC3)c12 [Example 9] | 91 | 60.1 | –
COc1cc(Cn2cccn2)cc2onc(NS(=O)(=O)[C@H]3C[C@H]4CC[C@H]3C4)c12 [Example 25] | 87 | 16.5 | –
COc1cc(Cn2cccn2)cc2onc(NS(=O)(=O)CC3CC4(CCC4)C3)c12 [Example 38] | 92 | – | –
COc1cc(Cn2cccn2)cc2onc(NS(=O)(=O)C3CCCC3C)c12 (stereo not drawn) [Example 72] | 70 | – | –
COc1cc(Cn2cccn2)cc2onc(NS(=O)(=O)CC3CCCC3(F)F)c12 (stereo not drawn) [Example 77] | – | 15.5 | –
COc1cc(Cn2cccn2)cc2onc(NS(=O)(=O)CC3CC(F)(F)C3)c12 [Example 36] | 51 | – | –
COc1cc(Cn2cccn2)cc2onc(NS(=O)(=O)CCC3CC4CCC3C4)c12 (stereo not drawn) [Example 45] | 108 | – | –
COc1cc(Cn2cccn2)cc2onc(NS(=O)(=O)CC3CCCOC3)c12 (stereo not drawn) [Example 3] | – | – | IC50 (KAT6A IC50 at 1 μM AcCoA): 301 nM
COc1cc(Cn2cccn2)cc2onc(NS(=O)(=O)[C@H]3CCCC[C@H]3OC)c12 [Example 83] | 85 | – | –
COc1cc(Cn2cccn2)cc2onc(NS(=O)(=O)[C@H]3CCCN(C(=O)OCc4ccccc4)C3)c12 [Example 88] | – | 99.4 | –
COc1cc(Cn2cccn2)cc2onc(NS(=O)(=O)CC3CCCC(F)(F)C3)c12 (stereo not drawn) [Example 19] | 81 | 65.3 | –
COc1cc(Cn2cccn2)cc2onc(NS(=O)(=O)CC3CCN(C(C)=O)CC3)c12 [Example 92] | 40 | – | –
COc1cc(Cn2cccn2)cc2onc(NS(=O)(=O)CCCC3CCCCC3)c12 [Example 37] | 98 | – | –
COc1cc(Cn2cccn2)cc2onc(NS(=O)(=O)CC3(C)CC3)c12 [Example 39] | 52 | – | –
COc1cc(Cn2cccn2)cc2onc(NS(=O)(=O)C3CCOC3=O)c12 (stereo not drawn) [Example 99] | 83 | – | –
CC[C@@H]1C[C@@H]1S(=O)(=O)Nc1noc2cc(Cn3cccn3)cc(OC)c12 [Example 26] | 71 | – | –
COc1cc(Cn2cccn2)cc2onc(NS(=O)(=O)C3CC3)c12 [Example 13] | – | – | Ki (read-out: KAT6A Ki at 10 μM AcCoA): 224 nM
COc1cc(Cn2cccn2)cc2onc(NS(=O)(=O)CC3C[C@@H]4[C@H](C3)C4(F)F)c12 (stereo partly drawn) [Example 64] | 92 | 28 | –
COc1cc(Cn2cccn2)cc2onc(NS(=O)(=O)CC34CCC(CC3)C4)c12 [Example 67] | 104 | – | –
COc1cc(Cn2cccn2)cc2onc(NS(=O)(=O)CC3CCC(F)(F)CC3)c12 [Example 10] | 48 | 89.4 | –
COc1cc(Cn2cccn2)cc2onc(NS(=O)(=O)C3CCCOC3)c12 (stereo not drawn) [Example 87] | 73 | 100 | –
COc1cc(Cn2cccn2)cc2onc(NS(=O)(=O)CC3CCC(C)O3)c12 (stereo not drawn) [Example 100] | 69 | – | –
COc1cc(Cn2cccn2)cc2onc(NS(=O)(=O)CC34CCCN(CC3)C4)c12 (stereo not drawn) [Example 105] | 101 | – | –
COc1cc(Cn2cccn2)cc2onc(NS(=O)(=O)CC3(C(F)F)CCCC3)c12 [Example 65] | 95 | – | –

SMILES | inhibition at 1 µM [%] | Ki (KAT6A Ki at 10 μM AcCoA) [nM] | further results
COCC1(S(=O)(=O)Nc2noc3cc(Cn4cccn4)cc(OC)c23)CCC1 [Example 74] | 92 | – | –
COc1cc(Cn2cccn2)cc2onc(NS(=O)(=O)[C@H]3C[C@@H]3c3ccc(F)cc3)c12 [Example 27] | – | 13.8 | –
COc1cc(Cn2cccn2)cc2onc(NS(=O)(=O)CC3CCCCC3(C)C)c12 (stereo not drawn) [Example 63] | 48 | – | –
COc1cc(Cn2cccn2)cc2onc(NS(=O)(=O)CC3CCC3(F)F)c12 (stereo not drawn) [Example 79] | 106 | – | –
COc1cc(Cn2cccn2)cc2onc(NS(=O)(=O)C[C@H]3C[C@H](C)C3)c12 [Example 134] | – | – | IC50 (KAT6A IC50 at 1 μM AcCoA): 40 nM
COc1cc(Cn2cccn2)cc2onc(NS(=O)(=O)CC(C)C)c12 [Example 128] | – | – | IC50 (read-out: KAT6A IC50 at 1 μM AcCoA): 128 nM
COc1cc(Cn2cccn2)cc2onc(NS(=O)(=O)CC3CCCOC3)c12 (stereo not drawn) [Example 98] | 41 | – | –
COc1cc(Cn2cccn2)cc2onc(NS(=O)(=O)CC3CC(C)C3)c12 (stereo not drawn) [Example 60] | 42 | – | –
COc1cc(Cn2cccn2)cc2onc(NS(=O)(=O)CC3(OC)CCCCC3)c12 [Example 52] | 66 | 127 | –
COc1cc(Cn2cccn2)cc2onc(NS(=O)(=O)CCC3CC3)c12 [Example 23] | 92 | 31.6 | –
COc1cc(Cn2cccn2)cc2onc(NS(=O)(=O)CC3CC4CCC3C4)c12 (stereo not drawn) [Example 30] | 98 | 7.32 | –
COc1cc(Cn2cccn2)cc2onc(NS(=O)(=O)CCC(C)(C)C3CC3)c12 [Example 32] | 108 | 4.88 | –
COc1cc(Cn2cccn2)cc2onc(NS(=O)(=O)CC3(C#N)CC3)c12 [Example 35] | 40 | – | –
COc1cc(Cn2cccn2)cc2onc(NS(=O)(=O)C3(C)CCC3)c12 [Example 81] | 41 | – | –
COc1cc(Cn2cccn2)cc2onc(NS(=O)(=O)CC3CC(OC)C3)c12 (stereo not drawn) [Example 69] | 78 | – | –
COc1cc(Cn2cccn2)cc2onc(NS(=O)(=O)CC3C(C)(C)C3(F)F)c12 (stereo not drawn) [Example 75] | 91 | – | –
COc1cc(Cn2cccn2)cc2onc(NS(=O)(=O)CC3CC(C)(C)OC3(C)C)c12 (stereo not drawn) [Example 86] | 77 | 107 | –
COc1cc(Cn2cccn2)cc2onc(NS(=O)(=O)CC3CCCCO3)c12 (stereo not drawn) [Example 101] | 65 | – | –
COc1cc(Cn2cccn2)cc2onc(NS(=O)(=O)CC3(C)CCOCC3)c12 [Example 118] | 56 | – | –
COc1cc(Cn2cccn2)cc2onc(NS(=O)(=O)CCC3CCC3)c12 [Example 29] | 103 | 13.1 | –
COc1cc(Cn2cccn2)cc2onc(NS(=O)(=O)CC3(C)CCCC3)c12 [Example 61] | 55 | – | –
COc1cc(Cn2cccn2)cc2onc(NS(=O)(=O)CC(C)C3CC3)c12 (stereo not drawn) [Example 48] | 55 | – | –
COc1cc(Cn2cccn2)cc2onc(NS(=O)(=O)CC3(C(F)F)CC3)c12 [Example 50] | 87 | – | –
COc1cc(Cn2cccn2)cc2onc(NS(=O)(=O)CCN3CCOCC3)c12 [Example 130] | – | – | IC50 (KAT6A IC50 at 1 μM AcCoA): 187 nM
COc1cc(Cn2cccn2)cc2onc(NS(=O)(=O)CC3CN(C)CCO3)c12 (stereo not drawn) [Example 119] | 58 | – | –
COc1cc(Cn2cccn2)cc2onc(NS(=O)(=O)CC3CCCO3)c12 (stereo not drawn) [Example 5] | – | – | IC50 (KAT6A IC50 at 1 μM AcCoA): 323 nM
COc1cc(Cn2cccn2)cc2onc(NS(=O)(=O)CC3CCC3)c12 [Example 17] | 83 | 82.4 | –
